{"source": "patent US11400168B2", "about": "“Methods and systems for noninvasive control of brain cells and related vectors and compositions” (CALIFORNIA INSTITUTE OF TECHNOLOGY, priority 2017, dated 2022)", "key": {"hM3Dq [1]": {"molecular_target": "T1, hM3Dq (Homo sapiens, UniProt P20309, A239G/Y149C)", "T1 sequence (P20309 whole entry Y149C/A239G)": "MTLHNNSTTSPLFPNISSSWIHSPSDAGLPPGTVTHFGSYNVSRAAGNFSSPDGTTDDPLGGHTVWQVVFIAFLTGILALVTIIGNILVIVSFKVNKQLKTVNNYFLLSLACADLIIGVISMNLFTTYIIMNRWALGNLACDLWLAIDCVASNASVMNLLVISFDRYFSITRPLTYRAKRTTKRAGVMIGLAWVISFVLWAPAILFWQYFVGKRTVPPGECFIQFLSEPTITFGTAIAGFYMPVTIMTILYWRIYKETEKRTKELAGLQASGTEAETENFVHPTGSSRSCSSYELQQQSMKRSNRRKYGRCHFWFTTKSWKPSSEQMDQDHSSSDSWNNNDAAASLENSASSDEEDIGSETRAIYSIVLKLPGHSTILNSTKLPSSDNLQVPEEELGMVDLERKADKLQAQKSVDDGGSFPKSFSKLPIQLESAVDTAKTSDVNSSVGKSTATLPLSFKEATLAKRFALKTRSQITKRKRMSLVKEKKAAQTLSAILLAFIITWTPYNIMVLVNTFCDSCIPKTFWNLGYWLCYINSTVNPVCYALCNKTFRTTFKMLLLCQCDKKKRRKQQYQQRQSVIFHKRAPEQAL", "assay": "c-Fos activation in dorsal CA3 of hippocampus after CNO in mice expressing hM3Dq-mCherry (ATAC)", "assay_type": "in vivo", "set-up": "host or cells: mouse (C57BL6J) hippocampal excitatory neurons transduced in vivo with AAV9", "details": "CNO 1 mg/kg IP, 2.5 h, 22 weeks after FUS-BBBO, n=6", "experimental": "C57BL6J male mice of 13 weeks of age underwent FUS-BBBO to administer AAV9 carrying hM3Dq-mCherry into the hippocampus. Subsequently, mice were housed singly to reduce background C-fos expression. After 22 weeks of expression, mice received an IP injection of 1 mg/kg CNO in sterile saline, and were returned to home cages. After 150 minutes, mice were anesthetized using Ketamine/Xylazine solution (80 mg/kg and 10 mg/kg, respectively, in PBS) and perfused with a cold PBS/Heparin (10 U/ml), and immediately afterwards with 10% Neutral Buffered Formalin (NBF). Their brains were extracted and post-fixed in 10% NBF for at least 24 hours. Brain sections (50 μm) were obtained using a VF-300 compresstome (Precisionary Instruments). […]\n(§1) For activation of hippocampus, the histological evaluation was performed by an observer blinded to the identity (hM3Dq positive, or negative) of granular layer nuclei in dCA3. The expression status of the neurons was determined after the scoring of c-Fos positivity. The activation of TH neurons was evaluated by an observer blinded to the presence of FUS-BBBO targeting at a given site. […] A three-dimensional reference atlas[82] was used to choose the appropriate regions and brain sections for each mouse and contralateral and ipsilateral controls to ascertain consistency in choice of analyzed sections. […]"}, "hM4Di": {"molecular_target": "T2, hM4Di (Homo sapiens, UniProt P08173, A203G/Y113C)", "T2 construct": "host or cells: mouse (C57BL6J) hippocampal excitatory neurons transduced in vivo with AAV9", "T2 sequence (P08173 1-479 Y113C/A203G)": "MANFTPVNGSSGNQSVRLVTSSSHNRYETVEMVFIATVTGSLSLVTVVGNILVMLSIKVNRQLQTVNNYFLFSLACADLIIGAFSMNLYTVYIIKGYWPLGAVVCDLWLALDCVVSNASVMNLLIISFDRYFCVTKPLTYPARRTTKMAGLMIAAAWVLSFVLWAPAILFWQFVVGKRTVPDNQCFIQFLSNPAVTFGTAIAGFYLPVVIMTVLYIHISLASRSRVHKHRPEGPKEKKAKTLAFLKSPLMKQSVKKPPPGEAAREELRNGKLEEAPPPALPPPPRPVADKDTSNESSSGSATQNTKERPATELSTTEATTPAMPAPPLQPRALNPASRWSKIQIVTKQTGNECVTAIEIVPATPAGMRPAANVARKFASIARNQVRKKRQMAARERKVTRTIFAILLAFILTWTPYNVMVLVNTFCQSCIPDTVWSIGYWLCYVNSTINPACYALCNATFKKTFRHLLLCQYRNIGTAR", "assay": "Context fear conditioning and recall (freezing in Context A) with hM4Di targeted to ventral and dorsal hippocampus", "assay_type": "in vivo, mice", "experimental": "(§2) Behavioral studies for fear conditioning were performed in sound-attenuated fear conditioning chambers (30×25×25 cm, Med Associates). Animals were trained and tested for context fear in Context A, which comprised a staggered wire grid floor, white light, 5% acetic acid for scent and no background noise. Locomotor testing was performed in Context B, which was differentiated from Context A by chamber shape, floor, illumination, odor, background noise and room location. Animal activity was recorded and quantified using Video Freeze software (Med Associates). For cued training, the tone was 80 dB and 30s.\n(§3) Mice were injected with CNO (10 mg/kg, IP) or saline (IP), and after 40-60 minutes underwent context and cued fear conditioning in Context A. This timeframe was chosen to allow CNO to reach its pharmacokinetic peak[88]. A 3-minute initial baseline period was followed by 3×30-s presentations of a tone co-terminated with a 2-s foot shock (0.7 mA), with inter-trial interval of 60 s. After the trials, the mice remained in the context for an additional 60 s, after which they were transported back into the vivarium. After 24 h, mice were placed in Context A to record context fear for the duration of training (8 min. and 40 s).\nMice were recorded using automated near-infrared video tracking in the fear conditioning chamber using VideoFreeze software. Mouse motion was measured using the activity score, from a video recording at 30 frames/s, with the motion threshold set at 18 activity units (standard value set in software). Freezing was defined as an activity score below 18 units for at least 1 s. Average freezing in the context test was scored over the whole trial. Due to automated data acquisition and evaluation, no blinding was necessary.\nmice were excluded from statistical analysis if their histologically determined DREADD expression was below 30% of cell bodies in dorsal CA3 region of the hippocampus. This threshold was chosen based on previous studies showing that behavioral effects generally require modulation of at least 30% of the neurons in a targeted region[89, 90] and dorsal CA3 being the most robustly transfected hippocampus region. The resulting analyzed groups had identical levels of expression (55.1% for Saline and 60.5% for CNO groups, p=0.26, heteroscedastic, two-tailed, t-test). […] Variability in gene expression may have been due to variability in intravenous injections of virus during the FUS-BBBO procedure, since we found no difference between these mice in T1 MRI signal enhancement post FUS-BBBO (FIG. 15, panel b).\nTo assess the ability of ATAC to inhibit targeted neurons, and to test the functionality of this technology in a behavioral paradigm, FUS-BBBO was used to target inhibitory DREADDs (hM4Di) to ventral and dorsal hippocampus (FIG. 5, panel a), and the impact of CNO administration on the formation of contextual fear memories was assessed. This well-established behavioral paradigm has been used in studies of anxiety, phobias, PTSD and fear circuitry[99]° [100]. Fear conditioning has also served as a testing ground for other novel neuromodulatory techniques. Since the hippocampus plays an essential role in memory formation, it is hypothesized that inhibiting it noninvasively using the ATAC strategy would reduce the ability of mice to form fear memories.\nTwo groups of control mice were either completely untreated or received intravenous virus without FUS-BBBO. After 6-8 weeks, the mice underwent a fear conditioning protocol (FIG. 5, panel a). In this protocol, the mice are placed in a unique environment (defined by chamber shape, lighting, smell and sound; Context A in FIG. 5, panel a) while receiving three electric foot shocks, causing them to associate this environment with the noxious stimulus in a process known as context fear conditioning. […]"}, "[2]": {"assay": "Cued conditioning acquisition (freezing during third tone of training)", "assay_type": "in vivo", "details": "ATAC, wild-type and AAV without FUS-BBBO mice", "experimental": "as §2\nas §3, with “s). […]” for “s).”"}, "[3]": {"assay": "Exploratory behavior in novel environment (Context B, open field test)", "assay_type": "in vivo", "details": "all groups of mice (ATAC, AAV without FUS-BBBO, wild-type), 3 minutes", "experimental": "as §2\nBetween 30 and 45 minutes after the context fear test, mice were transported to another room, placed in Context B and allowed to explore the chamber for 3 minutes while their activity was recorded. Due to automated data acquisition and evaluation, no blinding was necessary.\nOne day after fear conditioning, the mice were placed in a novel environment (Context B in FIG. 5, panel a), which they were allowed to explore freely for 3 minutes. The exploratory behavior of all groups of mice was likewise unaffected by CNO administration (FIG. 5, panel e-g)."}, "hM3Dq [4]": {"molecular_target": "T1, hM3Dq", "assay": "Intersectional ATAC: c-Fos activation of TH-positive neurons in SNc/VTA of TH-CRE mice", "assay_type": "in vivo, TH-CRE transgenic mice", "set-up": "expressed in transfected cells; host or cells: TH-positive neurons of SNc/VTA in TH-CRE transgenic mice, transduced in vivo with AAV9", "details": "CNO 1 mg/kg IP, 2 h; 9 weeks expression; n=5 mice", "experimental": "After FUS-BBBO, the mice were imaged again using the same FLASH sequence to confirm opening of the BBB and appropriate targeting. Immediately afterwards, mice were placed in the home cage for recovery. The TH-CRE animals, aged 18 weeks, were subjected to FUS-BBBO using the same protocol, and using the same dose of AAV9, as for C57BL6J mice. All TH-CRE animals were females.\nas §1, with “site. TH-CRE mice expressed hM3Dq for 9 weeks after FUS-BBBO, and then were given 1 mg/kg CNO. After 2 h, they were anesthetized with ketamine/xylazine (80/10 mg/kg in PBS) and perfused using cold heparine/PBS (10 u) and then 10% NBF.” for “site.”"}}, "data": [{"smiles": "C[N+]1([O-])CCN(C2=Nc3cc(Cl)ccc3Nc3ccccc32)CC1", "note": "[CNO, clozapine-N-oxide]", "values": [{"measurement": "likelihood of c-Fos staining, hM3Dq-positive cells versus cells not expressing hM3Dq", "setting": "hM3Dq [1]", "result": 5.8, "unit": "times"}, {"measurement": "time spent freezing in fear recall context", "setting": "hM4Di; ATAC mice (hM4Di), CNO 10 mg/kg IP 40-60 min before conditioning, recall 24 h later, saline 53.2%", "result": 21.8, "unit": "%"}, {"measurement": "context fear (freezing) without excluding mice with expression below 30%", "setting": "hM4Di; ATAC mice treated with CNO, all mice, saline 53.2%", "result": 34, "unit": "%"}, {"measurement": "reduction in fear memory versus saline", "setting": "hM4Di; ATAC mice, CNO before conditioning, n=13 and 7", "result": "more than 2 fold"}, {"measurement": "context fear relative to untreated controls", "setting": "hM4Di; CNO treatment alone in wild-type mice", "result": "did not result in a reduction in context fear"}, {"measurement": "correlation (r) of DREADD expression in dorsal CA3 with formation of context fear memories", "setting": "hM4Di; mice treated with CNO, all mice, n=11", "result": 0.62}, {"measurement": "reduction in fear memory formation", "setting": "hM4Di; single injection of CNO several weeks after FUS-BBBO", "result": 2.4, "unit": "fold"}, {"measurement": "context fear relative to untreated controls", "setting": "hM4Di; systemic AAV9 injection without FUS-BBBO, CNO", "result": "did not result in a reduction in context fear"}, {"measurement": "cued freezing at the end of the training session", "setting": "[2]", "result": "unaffected"}, {"measurement": "exploratory behavior", "setting": "[3]", "result": "unaffected"}, {"measurement": "increase in activation (c-Fos) among TH-positive neurons, ATAC-targeted side versus contralateral", "setting": "hM3Dq [4]", "result": 7.3, "unit": "fold"}]}]}
